Results: patent US20080161366A1, “AMINOALKYL SUBSTITUTED ARYL SULFAMIDE DERIVATIVES AND METHODS OF THEIR USE” (Wyeth, priority 2006, published 2008)
Counter-ions that a name gives are not always drawn.

Key:
[1] = Rat liver microsomal stability assay; format: in vitro ADME; settings: rat liver microsomes, 37° C., NADPH; for half-life at 1 µM: pH 7.4, read-out: RLM stability t1/2
[2] = target: Dopamine Transporter (hDAT) (Homo sapiens, UniProt Q01959); experiment: Dopamine transporter (hDAT) membrane binding assay, [3H]-WIN 35,428
Dopamine Transporter (hDAT), sequence (Q01959 whole entry): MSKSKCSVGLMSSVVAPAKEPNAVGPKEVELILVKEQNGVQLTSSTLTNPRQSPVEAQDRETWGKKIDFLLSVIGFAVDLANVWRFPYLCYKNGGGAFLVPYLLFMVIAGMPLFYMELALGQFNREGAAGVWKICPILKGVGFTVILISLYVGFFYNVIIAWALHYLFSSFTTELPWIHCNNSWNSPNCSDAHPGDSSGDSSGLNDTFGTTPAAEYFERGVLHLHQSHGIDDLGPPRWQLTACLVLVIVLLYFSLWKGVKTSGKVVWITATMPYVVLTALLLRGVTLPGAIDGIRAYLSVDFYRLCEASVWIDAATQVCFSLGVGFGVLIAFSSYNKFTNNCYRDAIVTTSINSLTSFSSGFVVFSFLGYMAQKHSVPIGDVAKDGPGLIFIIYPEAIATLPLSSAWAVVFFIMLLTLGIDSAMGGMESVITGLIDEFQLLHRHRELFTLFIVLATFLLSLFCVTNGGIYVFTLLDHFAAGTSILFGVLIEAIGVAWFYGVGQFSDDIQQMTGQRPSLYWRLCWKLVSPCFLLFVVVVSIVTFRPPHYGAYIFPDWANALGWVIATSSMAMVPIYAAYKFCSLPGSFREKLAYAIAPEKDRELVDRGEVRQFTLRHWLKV

[3] = target: T1, human norepinephrine transporter (hNET) (Homo sapiens, UniProt P23975); experiment: hNET uptake, Protocol B: cell based norepinephrine reuptake assay using recombinant hNET (MDCK-Net6 cells)
T1 sequence (P23975 whole entry): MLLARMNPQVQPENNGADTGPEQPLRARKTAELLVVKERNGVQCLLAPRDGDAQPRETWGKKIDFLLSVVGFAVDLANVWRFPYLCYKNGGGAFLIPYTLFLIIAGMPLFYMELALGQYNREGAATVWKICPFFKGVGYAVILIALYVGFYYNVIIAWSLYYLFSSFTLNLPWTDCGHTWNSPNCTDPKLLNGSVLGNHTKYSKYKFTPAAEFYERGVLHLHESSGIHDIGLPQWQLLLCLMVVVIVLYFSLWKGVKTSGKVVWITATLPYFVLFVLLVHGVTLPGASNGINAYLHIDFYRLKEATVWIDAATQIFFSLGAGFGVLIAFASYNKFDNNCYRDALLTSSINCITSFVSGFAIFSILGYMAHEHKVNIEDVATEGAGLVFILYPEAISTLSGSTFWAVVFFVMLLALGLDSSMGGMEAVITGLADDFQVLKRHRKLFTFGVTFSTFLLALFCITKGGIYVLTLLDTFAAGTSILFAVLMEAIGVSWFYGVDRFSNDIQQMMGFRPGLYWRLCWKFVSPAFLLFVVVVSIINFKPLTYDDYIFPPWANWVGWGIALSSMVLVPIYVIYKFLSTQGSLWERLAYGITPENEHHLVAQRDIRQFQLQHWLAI

[4] = target: T1, human norepinephrine transporter (hNET); experiment: hNET uptake, Protocol A: inhibition of [3H] NE uptake into cloned human NE transporters (MDCK cells); format: cell-based; set-up: expressed in transfected cells; host or cells: MDCK-Net6 cells; settings: for IC50: MDCK cells expressing hNET, [3H] NE 16 nM; for inhibition at 2 µM: MDCK, read-out: NE uptake (Protocol A) % inh. @ 2 uM
Procedure: hNET Assay Procedure Protocol A: Inhibition of [^3H] NE Uptake into Cloned Human NE Transporters (MDCK Cells) (“hNET uptake”)
[^3H] […] Cells were seeded at 300,000/T75 flask, and split twice weekly.
All uptake experiments were performed in 96-well plates (Falcon Optilux, cat #353947) in a total volume of 250 μl/well. MDCK cells were plated at 50,000 cells/well. […] 25 μl of each test compound was subsequently added to plates in triplicate and incubated at 37° C. for 5 minutes. All test compounds were dissolved in 100% DMSO and diluted in 4% DMSO/H2O, and assayed using a 7-point dose response curve (1 nM-10 μM). Next, 25 μl of [^3H] NE (74.9 Ci/mmol, Perkin Elmer, Boston, Mass.) was added to all wells and incubated at 37° C. for an additional 5 minutes. Non-specific uptake was defined by 20 μM desipramine. The final concentrations of [^3H] NE was 16 nM, respectively. The reaction was terminated by aspiration and washed with ice cold 50 mM Tris (pH 7.4). The plates were left to air dry for roughly 30 min, and MDCK cells were lysed by the addition of 25 μl of 0.25 M NaOH. 100 μl of Microscint-20 were added to each well (Packard, Perkin Elmer, Boston, Mass.), and the plates were counted using a TopCount (Perkin Elmer, Downer's Grove, Ill.) liquid scintillation counter.
% Inhibition of uptake=((mean cpm control wells−each cpm drug well)/(mean cpm control wells−non-specific wells)×100.
IC50 values were calculated using a Prism® nonlinear regression program where % inhibition is plotted versus concentration of inhibitor.

[5] = target: hNET (Homo sapiens, UniProt P23975); experiment: hNET binding according to Mahaney et al.; settings: printed in the Protocol B column with footnote
hNET, sequence (P23975 whole entry): as above

[6] = hNET Function IC50 (nM), protocol not stated
[7] = NE uptake (Protocol B) IC50 (nM), MDCK-Net6 cells, 3H-NE 16 nM

half-life at 1 µM [1] [min] | IC50 [2] [nM] | IC50 [3, 6] [nM] | Compound | also measured
11 | 449 | 8.4 | CNCCCCN1c2ccccc2N(c2ccc(F)cc2F)S1(=O)=O | –
2 | 598 | 2.6 | CNCCCN1c2ccccc2N(c2ccccc2)S1(=O)=O [drawing 157] | –
2 | 211 | 0.3 | CNCCCCN1c2ccccc2N(c2ccccc2)S1(=O)=O [drawing 158] | –
1 | 9330 | 2.3 | CNCCCCN1c2ccccc2N(c2c(F)cccc2F)S1(=O)=O [drawing 162] | –
18 | 122 | 19.8 | CNCCCN1c2ccccc2N(c2ccc(F)c(F)c2)S1(=O)=O [drawing 163] | –
2 | 479 | 2.7 | CNCCCN1c2ccccc2N(c2cc(F)ccc2F)S1(=O)=O [drawing 164] | –
10 | 366 | 11.3 | CNCCCN1c2ccccc2N(c2ccc(F)cc2F)S1(=O)=O [drawing 165] | –
19 | 52.8 | 46.1 | CNCCCCN1c2ccccc2N(c2ccc(F)cc2)S1(=O)=O [drawing 167] | –
< 1 | 276 | 7.06 | CNCCCN1c2ccccc2N(c2ccccc2C)S1(=O)=O [drawing 168] | –
2 | 178 | 10.8 | CNCCCN1c2ccccc2N(c2cccc(OC)c2)S1(=O)=O [drawing 169] | –

Further lines, the compound ahead of its results:

Compound | half-life at 1 µM [1] [min] | IC50 [2] [nM] | IC50 [3, 6] [nM] | also measured
CNCCCN1c2ccccc2N(c2c(F)cccc2F)S1(=O)=O | – | – | – | RLM stability t1/2 [1]: 2.0 min
NCCCN1c2ccccc2N(c2ccc(Cl)cc2)S1(=O)=O [Example 2, 3-[3-(4-chlorophenyl)-2,2-dioxido-2,1,3-benzothiadiazol-1(3H)-yl]propan-1-amine] | – | – | – | IC50 [4]: 2530 nM
O=S1(=O)N(CCCNC2CC2)c2ccccc2N1c1ccc(Cl)cc1 [Example 3, N-{3-[3-(4-chlorophenyl)-2,2-dioxido-2,1,3-benzothiadiazol-1(3H)-yl]propyl}cyclopropanamine] | – | – | – | IC50 [4]: 4220 nM
CCNCCCN1c2ccccc2N(c2ccc(Cl)cc2)S1(=O)=O [Example 4, 3-[3-(4-chlorophenyl)-2,2-dioxido-2,1,3-benzothiadiazol-1(3H)-yl]-N-ethylpropan-1-amine] | – | – | – | inhibition at 2 µM [4]: 37%
CNCCCN1c2ccccc2N(c2cccc(F)c2C)S1(=O)=O [Example 10, 3-[3-(3-fluoro-2-methylphenyl)-2,2-dioxido-2,1,3-benzothiadiazol-1(3H)-yl]-N-methylpropan-1-amine] | – | – | – | IC50 [4]: 40.2 nM
NCCCCN1c2ccccc2N(c2ccc(Cl)cc2)S1(=O)=O [Example 19, 4-[3-(4-chlorophenyl)-2,2-dioxido-2,1,3-benzothiadiazol-1(3H)-yl]butan-1-amine] | – | – | – | IC50 [4]: 1130 nM
CNCCCCN1c2ccccc2N(c2ccc(Cl)cc2)S1(=O)=O [Example 20, 4-[3-(4-chlorophenyl)-2,2-dioxido-2,1,3-benzothiadiazol-1(3H)-yl]-N-methylbutan-1-amine] | – | – | – | IC50 [4]: 478 nM
CN(C)CCCCN1c2ccccc2N(c2ccc(Cl)cc2)S1(=O)=O [Example 21, 4-[3-(4-chlorophenyl)-2,2-dioxido-2,1,3-benzothiadiazol-1(3H)-yl]-N,N-dimethylbutan-1-amine] | – | – | – | IC50 [4]: 5890 nM
CCCCNCCCCN1c2ccccc2N(c2ccc(Cl)cc2)S1(=O)=O [Example 22, n-butyl-4-[3-(4-chlorophenyl)-2,2-dioxido-2,1,3-benzothiadiazol-1(3H)-yl]butan-1-amine] | – | – | – | inhibition at 2 µM [4]: 27%
CCN(C)CCCCN1c2ccccc2N(c2ccc(Cl)cc2)S1(=O)=O [Example 23, 4-[3-(4-chlorophenyl)-2,2-dioxido-2,1,3-benzothiadiazol-1(3H)-yl]-ethyl-N-methylbutan-1-amine] | – | – | – | inhibition at 2 µM [4]: 28%
NCCN1c2ccccc2N(c2ccc(Cl)cc2)S1(=O)=O [Example 54, 2-[3-(4-chlorophenyl)-2,2-dioxido-2,1,3-benzothiadiazol-1(3H)-yl]ethanamine] | – | – | – | inhibition at 2 µM [4]: 3%
CNCCN1c2ccccc2N(c2ccc(Cl)cc2)S1(=O)=O [Example 55, 2-[3-(4-chlorophenyl)-2,2-dioxido-2,1,3-benzothiadiazol-1(3H)-yl]-N-methylethanamine] | – | – | – | inhibition at 2 µM [4]: 15%
NCCCCCN1c2ccccc2N(c2ccc(F)cc2F)S1(=O)=O [Example 116, 5-[3-(2,4-difluorophenyl)-2,2-dioxido-2,1,3-benzothiadiazol-1(3H)-yl]pentan-1-amine hydrochloride] | – | – | – | IC50 [5]: 679 nM
CCNCCCN1c2ccccc2N(c2c(F)cccc2F)S1(=O)=O [Example 126, 3-[3-(2,6-difluorophenyl)-2,2-dioxido-2,1,3-benzothiadiazol-1(3H)-yl]-N-ethylpropan-1-amine hydrochloride] | – | – | – | IC50 [3, 7]: 15 nM
CC(C)NCCCN1c2ccccc2N(c2c(F)cccc2F)S1(=O)=O [Example 127, 3-[3-(2,6-difluorophenyl)-2,2-dioxido-2,1,3-benzothiadiazol-1(3H)-yl]-N-isopropylpropan-1-amine hydrochloride] | – | – | – | IC50 [3, 7]: 148 nM
O=S1(=O)N(CCCNC2CCC2)c2ccccc2N1c1c(F)cccc1F [Example 128, N-{3-[3-(2,6-difluorophenyl)-2,2-dioxido-2,1,3-benzothiadiazol-1(3H)-yl]propyl}cyclobutanamine hydrochloride] | – | – | – | IC50 [3, 7]: 222 nM
O=S1(=O)N(CCCNC2CCCC2)c2ccccc2N1c1c(F)cccc1F [Example 129, N-{3-[3-(2,6-difluorophenyl)-2,2-dioxido-2,1,3-benzothiadiazol-1(3H)-yl]propyl}cyclopentanamine hydrochloride] | – | – | – | IC50 [3, 7]: 195 nM
O=S1(=O)N(CCCNC2CCCCC2)c2ccccc2N1c1c(F)cccc1F [Example 130, N-{3-[3-(2,6-difluorophenyl)-2,2-dioxido-2,1,3-benzothiadiazol-1(3H)-yl]propyl}cyclohexanamine hydrochloride] | – | – | – | IC50 [3, 7]: 224 nM
O=S1(=O)N(CCCNC2CCNCC2)c2ccccc2N1c1ccccc1F [Example 131, N-{3-[3-(2-fluorophenyl)-2,2-dioxido-2,1,3-benzothiadiazol-1(3H)-yl]propyl}piperidin-4-amine dihydrochloride] | – | – | – | IC50 [3, 7]: 365 nM
O=S1(=O)N(CCCNC2CCNCC2)c2ccccc2N1c1ccccc1 [Example 132, N-[3-(2,2-dioxido-3-phenyl-2,1,3-benzothiadiazol-1(3H)-yl)propyl]piperidin-4-amine dihydrochloride] | – | – | – | IC50 [3, 7]: 267 nM
O=S1(=O)N(CCNC2CCNCC2)c2ccccc2N1c1ccccc1F [Example 133, N-{3-[3-(2-fluorophenyl)-2,2-dioxido-2,1,3-benzothiadiazol-1(3H)-yl]ethyl}piperidin-4-amine dihydrochloride] | – | – | – | IC50 [3, 7]: 45 nM
O=S1(=O)N(CCNC2CCNCC2)c2ccccc2N1c1ccccc1 [Example 134, N-[2-(2,2-dioxido-3-phenyl-2,1,3-benzothiadiazol-1(3H)-yl)ethyl]piperidin-4-amine dihydrochloride] | – | – | – | IC50 [3, 7]: 67 nM
O=S1(=O)N(CCCNCCO)c2ccccc2N1c1ccccc1F [Example 135, 2-({3-[3-(2-fluorophenyl)-2,2-dioxido-2,1,3-benzothiadiazol-1(3H)-yl]propyl}amino)ethanol] | – | – | – | IC50 [3, 7]: 43 nM
CCNCCCN1c2ccccc2N(c2ccccc2F)S1(=O)=O [drawing 170] | 1 | 665 | 2.56 | –
N-{3-[3-(2-fluorophenyl)-2,2-dioxido-2,1,3-benzothiadiazol-1(3H)-yl]butyl}cyclopropanamine [Example 99] | – | – | – | IC50 ([3]; read-out: NE uptake (Protocol B) IC50, MDCK-Net6 cells, 3H-NE 16 nM): 22 nM
